EC50 data for one compound are collected here from PubChem BioAssay AID488825 (NMMLSC, 2010).

This assay deals with S. cerevisiae CIT2-GFP strain, flow cytometry fluorescence, 3 h. Nature of the assay: yeast TOR pathway CIT2-GFP reporter analogs – flow cytometry, cherry pick 3, dose response, SAR follow-up (AID 488825).

By EC50 is commonly meant the concentration needed to bring the measured effect to its halfway point. `CNc1nc(N)c([N+](=O)[O-])c(Nc2cccc(Cl)c2)n1`: the EC50 is 5.72 µM.
